Measured values as given in ChEMBL document CHEMBL1201862, “PubChem BioAssay data set” (2004).
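Cells were grown in 96-well plates and exposed to each compound for 48 hours at five concentrations; endpoints were interpolated linearly between bracketing concentrations, or set to the highest concentration if not reached. Here, GI50 denotes the concentration required for 50% inhibition of growth.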 Active and inactive are the calls of the source. Rule as the data show it: active = GI50 up to about 1.1 µM and inactive = higher.

Columns and labels:
Test in all cases: growth of human tumour cells (NCI), 48 h
SR = system: SR
MOLT-4 = system: MOLT-4
EKVX = system: EKVX
SK-MEL-5 = system: SK-MEL-5
A549 = system: A549
OVCAR-4 = system: OVCAR-4
OVCAR-8 = system: OVCAR-8
BT-549 = system: BT-549
NCI-H522 = system: NCI-H522
NCI-H460 = system: NCI-H460
HT-29 = system: HT-29
SK-MEL-28 = system: SK-MEL-28
CAKI-1 = system: CAKI-1
A498 = system: A498
SF-268 = system: SF-268
SN12C = system: SN12C
KM12 = system: KM12
HOP-92 = system: HOP-92
RPMI-8226 = system: RPMI-8226
MDA-MB-231 = system: MDA-MB-231

SMILES	GI50 (SR)	GI50 (MOLT-4)	GI50 (EKVX)	GI50 (SK-MEL-5)	GI50 (A549)	GI50 (OVCAR-4)	GI50 (OVCAR-8)	GI50 (BT-549)	GI50 (NCI-H522)	GI50 (NCI-H460)	GI50 (HT-29)	GI50 (SK-MEL-28)	GI50 (CAKI-1)	GI50 (A498)	GI50 (SF-268)	GI50 (SN12C)	GI50 (KM12)	GI50 (HOP-92)	GI50 (RPMI-8226)	GI50 (MDA-MB-231)
CC(C)(CN1CCCCC1)C(=O)/C=C/c1ccc(/C=C/C(=O)C(C)(C)CN2CCCCC2)cc1	0.103 µM (active)	0.11 µM (active)	1.71 µM (inactive)	1.04 µM (active)	0.933 µM (active)	0.368 µM (active)	1.02 µM (active)	1.7 µM (inactive)	0.0454 µM (active)	0.684 µM (active)	0.198 µM (active)	1.17 µM (inactive)	0.303 µM (active)	1.6 µM (inactive)	0.413 µM (active)	0.208 µM (active)	0.434 µM (active)	0.333 µM (active)	0.193 µM (active)	0.196 µM (active)
O=C(c1ccccc1)c1cc[n+](C2=C([N-]S(=O)(=O)c3ccccc3)C(=O)c3ccccc3C2=O)cc1	3.08 µM (inactive)	3.05 µM (inactive)	14 µM (inactive)	2.01 µM (inactive)	14.5 µM (inactive)	13.1 µM (inactive)	13 µM (inactive)	6.76 µM (inactive)	4.74 µM (inactive)	13.5 µM (inactive)	14.4 µM (inactive)	3.22 µM (inactive)	2.36 µM (inactive)	18.1 µM (inactive)	11.5 µM (inactive)	6.85 µM (inactive)	12.6 µM (inactive)	8.61 µM (inactive)	3.3 µM (inactive)	12.9 µM (inactive)
O=C1/C(=C\c2cccc(Oc3ccccc3)c2)S(=O)(=O)C(c2ccccc2)N1c1cccc(Cl)c1 (centres undefined)	20.9 µM (inactive)	30.1 µM (inactive)	51.1 µM (inactive)	43.9 µM (inactive)	> 100 µM (inactive)	98.9 µM (inactive)	25.2 µM (inactive)	45.8 µM (inactive)	26.8 µM (inactive)	88.3 µM (inactive)	30.1 µM (inactive)	> 100 µM (inactive)	78.2 µM (inactive)	> 100 µM (inactive)	39.2 µM (inactive)	54.8 µM (inactive)	58.1 µM (inactive)	27.7 µM (inactive)	25.9 µM (inactive)	> 100 µM (inactive)
O=C1CC2SC(COCc3ccccc3)(CCN2Cc2ccccc2)C1 (centres undefined)	35.2 µM (inactive)	30.3 µM (inactive)	64.3 µM (inactive)	19.5 µM (inactive)	51.2 µM (inactive)	61.9 µM (inactive)	> 100 µM (inactive)	51.1 µM (inactive)	56.8 µM (inactive)	54.6 µM (inactive)	31.6 µM (inactive)	> 100 µM (inactive)	> 100 µM (inactive)	> 100 µM (inactive)	> 100 µM (inactive)	> 100 µM (inactive)	52.2 µM (inactive)	45.6 µM (inactive)	30.2 µM (inactive)	> 100 µM (inactive)
COc1nc2c(c(=O)n1C)N[C@H]1[C@H](OC(C)=O)[C@@H](OC(C)=O)CO[C@H]1N2	> 100 µM (inactive)	> 100 µM (inactive)	> 100 µM (inactive)	> 100 µM (inactive)	> 100 µM (inactive)	> 100 µM (inactive)	> 100 µM (inactive)	> 100 µM (inactive)	> 100 µM (inactive)	> 100 µM (inactive)	> 100 µM (inactive)	> 100 µM (inactive)	> 100 µM (inactive)	> 100 µM (inactive)	> 100 µM (inactive)	> 100 µM (inactive)	> 100 µM (inactive)	> 100 µM (inactive)	> 100 µM (inactive)	> 100 µM (inactive)
O=C(O)C1=CN(c2ccncc2)C(c2ccco2)=CC1c1ccccc1[N+](=O)[O-] (centres undefined)	1.94 µM (inactive)	3.03 µM (inactive)	6.58 µM (inactive)	6.65 µM (inactive)	15.6 µM (inactive)	13.9 µM (inactive)	17.3 µM (inactive)	12.1 µM (inactive)	3.22 µM (inactive)	14.6 µM (inactive)	2.13 µM (inactive)	12.8 µM (inactive)	16.5 µM (inactive)	13 µM (inactive)	5.71 µM (inactive)	13.6 µM (inactive)	1.75 µM (inactive)	11.9 µM (inactive)	2.67 µM (inactive)	14.6 µM (inactive)
COC(=O)C(Cc1ccccc1)NC(=O)C(CCC(=O)OCc1ccccc1)NC(=O)OC(C)(C)C (centres undefined)	27.2 µM (inactive)	> 100 µM (inactive)	> 100 µM (inactive)	> 100 µM (inactive)	> 100 µM (inactive)	64 µM (inactive)	> 100 µM (inactive)	> 100 µM (inactive)	30.4 µM (inactive)	30.5 µM (inactive)	35.6 µM (inactive)	> 100 µM (inactive)	> 100 µM (inactive)	> 100 µM (inactive)	> 100 µM (inactive)	82.6 µM (inactive)	83.9 µM (inactive)	> 100 µM (inactive)	25 µM (inactive)	48.1 µM (inactive)
O=C1CCCC1CN1CCCC1 (centres undefined)	0.194 µM (active)	0.206 µM (active)	18.1 µM (inactive)	18 µM (inactive)	> 75.5 µM (inactive)	1.93 µM (inactive)	17.3 µM (inactive)	1.56 µM (inactive)	< 0.0275 µM (active)	42.4 µM (inactive)	23.2 µM (inactive)	13.6 µM (inactive)	0.348 µM (active)	22.5 µM (inactive)	21.6 µM (inactive)	17.7 µM (inactive)	16.1 µM (inactive)	6.56 µM (inactive)	0.431 µM (active)	15.5 µM (inactive)
OC[C@H](O)[C@@H](OCc1ccccc1)[C@H](NCc1ccccc1)c1cccs1	> 100 µM (inactive)	> 100 µM (inactive)	> 100 µM (inactive)	> 100 µM (inactive)	> 100 µM (inactive)	> 100 µM (inactive)	> 100 µM (inactive)	> 100 µM (inactive)	> 100 µM (inactive)	85.7 µM (inactive)	60 µM (inactive)	> 100 µM (inactive)	> 100 µM (inactive)	> 100 µM (inactive)	4.11 µM (inactive)	> 100 µM (inactive)	> 100 µM (inactive)	> 100 µM (inactive)	92 µM (inactive)	> 100 µM (inactive)
COC(C)(C)/C=C/c1[nH]c2ccccc2c1CC(=O)NCCc1cn(C(c2ccccc2)(c2ccccc2)c2ccccc2)cn1	2.23 µM (inactive)	2.36 µM (inactive)	3.44 µM (inactive)	2.92 µM (inactive)	3.71 µM (inactive)	4.9 µM (inactive)	4.99 µM (inactive)	7.87 µM (inactive)	3.66 µM (inactive)	2.62 µM (inactive)	2.71 µM (inactive)	9.77 µM (inactive)	15.9 µM (inactive)	3.25 µM (inactive)	7.91 µM (inactive)	3.41 µM (inactive)	4.22 µM (inactive)	5.33 µM (inactive)	2.39 µM (inactive)	4.72 µM (inactive)
CC(C)(CC(O)C#N)/[N+]([O-])=[N+](\[O-])C(C)(C)CC(O)C#N (centres undefined)	15.2 µM (inactive)	10.3 µM (inactive)	32.6 µM (inactive)	29.2 µM (inactive)	57.4 µM (inactive)	24.1 µM (inactive)	32.3 µM (inactive)	20.6 µM (inactive)	13.8 µM (inactive)	36.1 µM (inactive)	28.4 µM (inactive)	26.6 µM (inactive)	10.9 µM (inactive)	> 100 µM (inactive)	23.4 µM (inactive)	19.3 µM (inactive)	30.7 µM (inactive)	18.2 µM (inactive)	19.4 µM (inactive)	23.9 µM (inactive)
CC(OCc1ccccc1)C(NC(=O)C1CSSCC(NC(=O)C(Cc2ccccc2)NC(=O)OCc2ccccc2)C(=O)NC(Cc2ccccc2)C(=O)NC(Cc2cn(C=O)c3ccccc23)C(=O)NC(CCCCNC(=O)OCc2ccccc2)C(=O)NC(C(C)OCc2ccccc2)C(=O)N1)C(N)=O (centres undefined)	34 µM (inactive)	2.81 µM (inactive)	> 83.2 µM (inactive)	24.5 µM (inactive)	> 79.3 µM (inactive)	> 43.5 µM (inactive)	75.2 µM (inactive)	21.2 µM (inactive)	17.4 µM (inactive)	22.5 µM (inactive)	6.04 µM (inactive)	27.9 µM (inactive)	46 µM (inactive)	27.3 µM (inactive)	> 61.8 µM (inactive)	> 100 µM (inactive)	3.91 µM (inactive)	38.3 µM (inactive)	5.04 µM (inactive)	12.6 µM (inactive)
CCCC(=O)OCC1OC(n2cc(F)c(=O)[nH]c2=O)CC1OC(=O)CCC (centres undefined)	0.034 µM (active)	4.63 µM (inactive)	> 10 µM (inactive)	0.279 µM (active)	0.0578 µM (active)	> 10 µM (inactive)	0.203 µM (active)	0.376 µM (active)	5.22 µM (inactive)	0.119 µM (active)		> 6.68 µM (inactive)	0.183 µM (active)	0.484 µM (active)	0.0368 µM (active)	0.346 µM (active)	> 5.02 µM (inactive)	0.509 µM (active)	0.973 µM (active)	> 10 µM (inactive)
